Molecular target: T1, recombinant human mPGES-1 (Homo sapiens, UniProt O14684)
T1 sequence (O14684 1-152): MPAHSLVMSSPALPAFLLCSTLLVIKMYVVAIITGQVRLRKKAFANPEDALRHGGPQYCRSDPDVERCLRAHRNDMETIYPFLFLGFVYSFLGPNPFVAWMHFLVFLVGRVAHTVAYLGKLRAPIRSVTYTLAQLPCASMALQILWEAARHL
Experiment: Assay A: mPGES-1 enzyme assay (HTRF detection of PGE2)
Type: biochemical
Conditions: biological assay A (compounds 1-41, 54, 55, 62, 73); PGE2 formation from PGH2, HTRF; read-out: mPGES-1 inhibitory effect IC50
Excerpt: Assay A: mPGES-1 Enzyme Assay
The basis of the assay used is to measure the inhibition of microsomal prostaglandin E2 synthase-1 (mPGES-1) dependent prostaglandin (PG) E2 formation from PGH2 by different compounds. Thus, the formation of PGE2 is used as signal and a lowering of this signal can be interpreted as inhibition of mPGES-1. Similar assays to measure inhibition of mPGES-1 have previously been described in the literature.
• Glutathione (Sigma, G-4251) • Freeze culture in Rosetta E coli expression strain. • LB growth media with Ampillicillin (Amp) final concentration in culture 50 μg/mL • Chloroamphenicol stock 34 mg/mL (chloro) final concentration in culture 34 μg/mL • Sterile growth flasks for 500 mL-1 liter cultures • 0.1 M KPi buffer pH 7.4 • 9.25% HCl • PGH2 (0.25 mM) • Fe (II) Cl2 tetrahydrate, 99% (Sigma, 220229) • 384-well plate with compounds • 96-well plate, polypropylene (Thermo fast 96 skirted VWR) • 384-well plate polypropylene PCR plate (Greiner 785201) • Greiner 384-well plate pp (In vitro cat. no. 781280) • Adhesive sealing film for 96-well plates (Sigma-Aldrich) • Aluminium foil (PCR foil, 310-0030-127-471 from Labora) • PBS (GIBCO 14040) • Prostaglandin E2 Assay (Cisbio, cat. no. 62P2APEC) • Biomek FX robot (Beckman Coulter) • Biomek NX robot (Beckman Coulter) • Multidrop; micro or combi (ThermoLabsystems) • Plate reader: Safire2 (Tecan)
Microsomes from Rosetta E. coli bacteria expressing recombinant human mPGES-1 can be derived as described below:
Inoculate 5 mL LB with Amp and Chloro with bacteria from freeze culture. Incubate over night at 37° C. with 200 rpm. Thereafter, inoculate 500-800 mL LB containing Amp and Chloro with the 5 mL on culture and grow to OD640 of 0.6-0.8. Chill the culture to +4° C. before induction. Induce the culture with IPTG at a final concentration of 400 μM. Express the protein at room temp 18-23° C. with 200 rpm shaking over night.
The following steps can be performed on the following day: • 1. Spin down the cells in 250 mL centrifuge flasks for 15 min at 7000 rpm • 2. Dissolve the pellet from 250 mL culture in 12.5 mL homogenization buffer • 3. Disintegrate the cells by sonication, 4×10 seconds at 35% amplitude • 4. Add 2.5 mL MgCl2 (100 mM) and DNase 12.5 μL (0.8 mg/mL) and incubate on ice for 30 min • 5. Spin down the bacteria debris and save the supernatant, 7000 rpm for 15 min • 6. Isolate the protein containing membranes in the supernatant by ultracentrifugation 45000×g for 1 hour. • 7. Discard the supernatant and dissolve the pellet in 20 mM KPi buffer and aliquot the enzyme and store aliquots at −80° C.
Before each experiment is performed an aliquot of the enzyme is thawed and it can then be dissolved in 0.1 M KPi pH 7.4 buffer containing 2.5 mM GSH. 50 μL of this enzyme solution is subsequently dispensed in a 384-well plate at room temperature. 0.5 μL of the inhibitor dissolved in DMSO is thereafter added to each well and incubated for 25 minutes at room temperature. Subsequently, 2 μL of PGH2 dissolved in an appropriate solvent is added to each well and after one minute at room temperature, the acidified stop solution containing FeCl2 is added. 4 μL of the total volume is transferred to a separate plate and diluted 750-fold in two separate steps before quantification of PGE2.
In order to quantitate the amount of PGE2 that has been formed, a homogenous time resolved fluorescent (HTRF) detection of PGE2 can be performed by the use of a commercially available kit from CisBio essentially according to the manufacturer's protocol. […]

Row | Compound | IC50 [nM]
1 | CNC(=O)c1cc(NC(=O)c2cc(CNC(=O)C3(C)CCCCC3)ccc2C)ccc1Cl [Example 1, N-(4-Chloro-3-methylaminocarbonyl-phenyl)-2-methyl-5-[(1-methylcyclohexylcarbonylamino)methyl]-benzamide] | ~1600
2 | CC(C)(C)C(=O)NCc1ccc(Cl)c(C(=O)Nc2ccc(F)c(C(=O)Nc3ccc(Br)cc3)c2)c1 [Example 2, N-[4-Fluoro-3-(4-bromophenyl)aminocarbonyl-phenyl]-2-chloro-5-(tert-butylcarbonylamino)methyl-benzamide] | 4
3 | CC(C)(C)C(=O)NCc1ccc(Cl)c(C(=O)Nc2ccc(Cl)c(C(=O)Nc3ccc(Br)cc3)c2)c1 [Example 3, N-[4-Chloro-3-(4-bromophenyl)aminocarbonyl-phenyl]-2-chloro-5-(tert-butylcarbonylamino)methyl-benzamide] | 22
4 | COc1ccc(NC(=O)c2cc(CNC(=O)C(C)(C)C)ccc2Cl)cc1C(=O)Nc1ccc(Br)cc1 [Example 4, N-[4-Methoxy-3-(4-bromophenyl)aminocarbonyl-phenyl]-2-chloro-5-(tert-butylcarbonylamino)methyl-benzamide] | 1
5 | CC(C)(C)C(=O)NCc1ccc(Cl)c(C(=O)Nc2ccc(OCC(F)F)c(C(=O)N[C@H]3CC[C@H](C(F)(F)F)CC3)c2)c1 [Example 5, N-[4-(2,2-Difluoroethyl)oxy-3-[trans-(4-trifluoromethyl-cyclohexyl)amino]carbonyl-phenyl]-2-chloro-5-(tert-butylcarbonylamino)methyl-benzamide] | 2
6 | CC(C)(C)C(=O)NCc1ccc(Cl)c(C(=O)Nc2cnc(OCC(F)F)c(C(=O)Nc3ccc(Br)cc3)c2)c1 [Example 6, N-[2-(2,2-Difluoroethyl)oxy-3-(4-bromophenyl)aminocarbonyl-pyridin-5-yl]-2-chloro-5-(tert-butylcarbonylamino)methyl-benzamide] | 2
7 | CC(C)(C)C(=O)NCc1ccc(Cl)c(C(=O)Nc2ccc(OCC(F)F)c(C(=O)Nc3ccc(F)c(Cl)c3)c2)c1 [Example 7, N-[4-(2,2-Difluoroethyl)oxy-3-(4-fluoro-3-chloro-phenyl)aminocarbonyl-phenyl]-2-chloro-5-(tert-butylcarbonylamino)methyl-benzamide] | 4
8 | COc1ccc(NC(=O)c2cc(CNC(=O)C(C)(C)C)ccc2Cl)cc1C(=O)Nc1cc(C(F)(F)F)ccn1 [Example 8, N-[4-Methoxy-3-(4-trifluoromethyl-pyridin-2-yl)aminocarbonyl-phenyl]-2-chloro-5-(tert-butylcarbonylamino)methyl-benzamide] | 7
9 | COc1ccc(NC(=O)c2cc(CNC(=O)C(C)(C)C(F)(F)F)ccc2Cl)cc1C(=O)Nc1ccc(Br)cc1 [Example 9, N-[4-Methoxy-3-(4-bromophenyl)aminocarbonyl-phenyl]-2-chloro-5-(2,2,2-trifluoro-1,1-dimethyl-ethyl)carbonylaminomethyl-benzamide] | 2
10 | O=C(NCc1ccc(Cl)c(C(=O)Nc2ccc(Cl)c(C(=O)NC3CC3)c2)c1)c1ccc(Cl)s1 [Example 10, N-[4-Chloro-3-cyclopropylaminocarbonyl-phenyl]-2-chloro-5-(5-chloro-thien-2-yl)carbonylaminomethyl-benzamide] | ~900
11 | CC(C)(C)C(=O)NCc1ccc(Cl)c(C(=O)Nc2ccc(OCC(F)(F)F)c(C(=O)N[C@H]3CC[C@H](C(F)(F)F)CC3)c2)c1 [Example 11] | 4
12 | CC(C)(C)C(=O)NCc1ccc(Cl)c(C(=O)Nc2ccc(OCC(F)F)c(C(=O)NCC3CCC3)c2)c1 [Example 12] | 3
13 | CC(C)(C)C(=O)NCc1ccc(Cl)c(C(=O)Nc2ccc(OCC(F)F)c(C(=O)NCC3CC3)c2)c1 [Example 13] | 13
14 | CC(C)(C)C(=O)NCc1ccc(Cl)c(C(=O)Nc2ccc(OCC(F)F)c(C(=O)NCC3CC3(C)C)c2)c1 (stereo not shown) [Example 14] | 4
15 | CC(C)(C)C(=O)NCc1ccc(Cl)c(C(=O)Nc2ccc(OCC(F)F)c(C(=O)Nc3ccc(Br)cc3)c2)c1 [Example 15] | 2
16 | COc1ccc(NC(=O)c2cc(CNC(=O)C(C)(C)C)ccc2Cl)cc1C(=O)NCc1ccccc1C(F)(F)F [Example 16] | 14
17 | COc1ccc(NC(=O)c2cc(CNC(=O)C(C)(C)C)ccc2Cl)cc1C(=O)NC1CCCCC1 [Example 17] | 16
18 | COc1ccc(NC(=O)c2cc(CNC(=O)C(C)(C)C)ccc2Cl)cc1C(=O)N[C@H]1CC[C@H](C(C)(C)C)CC1 [Example 18] | 2
19 | COc1ccc(NC(=O)c2cc(CNC(=O)C(C)(C)C)ccc2Cl)cc1C(=O)N[C@H]1CC[C@@H](C(F)(F)F)CC1 [Example 19] | 4
20 | CC(C)(C)C(=O)NCc1ccc(Cl)c(C(=O)Nc2ccc(Cl)c(C(=O)NC3CC3)c2)c1 [Example 20] | ~3000
21 | O=C(Nc1ccc(Cl)c(C(=O)NC2CC2)c1)c1cc(CNC(=O)C2CC2)ccc1Cl [Example 21] | ~1800
22 | COc1ccc(NC(=O)c2cc(CNC(=O)C3(C(F)(F)F)CCCC3)ccc2Cl)cc1C(=O)Nc1ccc(Br)cc1 [Example 22] | 2
23 | COc1ccc(NC(=O)c2cc(CNC(=O)c3c(F)ccc(F)c3Cl)ccc2Cl)cc1C(=O)Nc1ccc(Br)cc1 [Example 23] | 1
24 | COc1ccc(NC(=O)c2cc(CNC(=O)c3cccnc3Cl)ccc2Cl)cc1C(=O)Nc1ccc(Br)cc1 [Example 24] | 2
25 | COc1ccc(NC(=O)c2cc(CNC(=O)c3c(F)cccc3Cl)ccc2Cl)cc1C(=O)Nc1ccc(Br)cc1 [Example 25] | 1
26 | COc1ccc(NC(=O)c2cc(CNC(=O)c3c(F)cccc3C(F)(F)F)ccc2Cl)cc1C(=O)Nc1ccc(Br)cc1 [Example 26] | 3

Molecular target: T1, recombinant human mPGES-1
Experiment: Assay B: mPGES-1 enzyme assay (modified)
Type: biochemical
Conditions: biological assay B (all other compounds); PGH2 final conc. 2 μM, HTRF; read-out: mPGES-1 inhibitory effect IC50
How it was run: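 Microsomal recombinant human mPGES-1 preincubated 25 min at room temperature with compound in pH 7.4 phosphate buffer containing 2.5 mmol/L GSH; reaction started with 2 μM PGH2 (final), stopped with FeCl2 after 60 s. PGE2 quantified by HTRF against calibration curve; IC50 by nonlinear regression after background subtraction.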

Row | Compound | IC50 [nM]
27 | N#CC1(C(=O)NCc2ccc(Cl)c(C(=O)Nc3ccc(OCC(F)F)c(C(=O)Nc4ccc(Br)cc4)c3)c2)CC1 [Example 173] | 48
28 | NC(C(=O)NCc1ccc(Cl)c(C(=O)Nc2ccc(OCC(F)F)c(C(=O)Nc3ccc(Br)cc3)c2)c1)C(F)(F)F (stereo not shown) [Example 174] | 8
29 | CC(C)C(O)C(=O)NCc1ccc(Cl)c(C(=O)Nc2ccc(OCC(F)F)c(C(=O)Nc3ccc(Br)cc3)c2)c1 (stereo not shown) [Example 175] | 9
30 | CNC(C)(C)C(=O)NCc1ccc(Cl)c(C(=O)Nc2ccc(OCC(F)F)c(C(=O)Nc3ccc(Br)cc3)c2)c1 [Example 176] | 50
31 | CC(C)(C)C(=O)NCc1ccc(Cl)c(C(=O)Nc2cnc(OCC(F)F)c(C(=O)N[C@H]3CC[C@H](C(F)(F)F)CC3)c2)c1Cl [Example 178] | 7
32 | CC(C)(C)C(=O)NCc1ccc(Cl)c(C(=O)Nc2ccc(N3CCC(F)(F)C3)c(C(=O)Nc3ccc(Br)cc3)c2)c1Cl [Example 179] | 4
33 | CC(C)(C)C(=O)NCc1ccc(Cl)c(C(=O)Nc2ccc(N3CCCC(C(F)(F)F)C3)c(C(=O)Nc3ccc(Br)cc3)c2)c1Cl (stereo not shown) [Example 180] | 2
34 | CC(C)(C)C(=O)NCc1ccc(Cl)c(C(=O)Nc2ccc(N3CCC(F)(F)CC3)c(C(=O)Nc3ccc(Br)cc3)c2)c1Cl [Example 181] | 2
